Experimental data: patent publication US11000033B2, “Ketone or oxime compound, and herbicide” (NISSAN CHEMICAL CORPORATION, priority 2014, dated 2021)

Legend:
Assay type in all cases: in vivo
[1] = tested on: wheat; assay: Test Example 4: effect on crop by soil treatment (symbol e); details: application herbicide amount 320 g/ha
Summary of the method: (§1)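 Grown at 25° C. to 30° C. in a greenhouse, the crops came from seed sown spot-wise in sterilized diluvial soil under roughly 1.5 cm of covering soil.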

[2] = tested on: Abutilon theophrasti; assay: Test Example 4: herbicidal effect by soil treatment (symbol M); details: application herbicide amount 320 g/ha
Summary of the method: (§2)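 Seeds were sown in sterilized diluvial soil, covered with about 1.5 cm of soil, and the soil surface was sprayed with a water-diluted emulsion of the compound at a predetermined rate. Plants grew in a greenhouse at 25° C. to 30° C.; effects were scored visually 3 weeks after application.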

[3] = tested on: Alopecurus myosuroides; assay: Test Example 4: herbicidal effect by soil treatment (symbol J); details: application herbicide amount 320 g/ha
Summary of the method: as §2

[4] = tested on: Lolium multiflorum Lam.; assay: Test Example 4: herbicidal effect by soil treatment (symbol K); details: application herbicide amount 320 g/ha
Summary of the method: as §2

[5] = tested on: rice; assay: Test Example 4: effect on crop by soil treatment (symbol b); details: application herbicide amount 320 g/ha
Summary of the method: as §1

[6] = tested on: Setaria viridis; assay: Test Example 4: herbicidal effect by soil treatment (symbol G); details: application herbicide amount 320 g/ha
Summary of the method: as §2

[7] = tested on: directly sowed rice plant; assay: Test Example 3: effect on crop by foliage application, Wagner pot (symbol b); details: application herbicide amount 320 g/ha
Summary of the method: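 Wagner pot (1/10000 are), alluvial soil, submerged 0.1–0.5 cm; sown E. crus-galli var. crus-galli, L. chinensis, C. difformis, rice; greenhouse 25–30 °C.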

[8] = tested on: Chenopodium album; assay: Test Example 5: herbicidal effect by foliage application, plastic box (symbol O); details: 320 g/ha, 3 weeks after application
Summary of the method: (§3)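 Visual herbicidal score, taken three weeks post-application, of seedlings sprayed on the foliage with water-diluted emulsion at a predetermined amount; plants were 14 days old, greenhouse-raised at 25° C. to 30° C.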

[9] = tested on: Stellaria media; assay: Test Example 5: herbicidal effect by foliage application, plastic box (symbol P); details: 320 g/ha, 3 weeks after application
Summary of the method: as §3

[10] = tested on: Avena fatua; assay: Test Example 4: herbicidal effect by soil treatment (symbol I); details: application herbicide amount 320 g/ha
Summary of the method: as §2

[11] = tested on: corn; assay: Test Example 5: effect on crop by foliage application, plastic box (symbol c); details: 320 g/ha, 3 weeks after application
Summary of the method: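 A greenhouse held between 25° C. and 30° C. was used to grow plants sown spot-wise, beneath ~1.5 cm of soil, in boxes of sterilized diluvial soil.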

[12] = tested on: Avena fatua; assay: Test Example 5: herbicidal effect by foliage application, plastic box (symbol I); details: 320 g/ha, 3 weeks after application
Summary of the method: as §3

[13] = tested on: Cyperus difformis; assay: Test Example 3: herbicidal effect by foliage application, Wagner pot (symbol E); details: application herbicide amount 320 g/ha
Summary of the method: (§4)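 Seeds sown in alluvial soil kept under 0.1–0.5 cm water, greenhouse 25–30 °C; 14 d growth. Leaves treated by small sprayer with water-diluted emulsion at a predetermined rate. Effect graded by set scale, 3 weeks.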

[14] = tested on: Leptochloa chinensis; assay: Test Example 3: herbicidal effect by foliage application, Wagner pot (symbol D); details: application herbicide amount 320 g/ha
Summary of the method: as §4

[15] = tested on: Amaranthus retroflexus; assay: Test Example 4: herbicidal effect by soil treatment (symbol N); details: application herbicide amount 320 g/ha
Summary of the method: as §2

[16] = tested on: Echinochloa oryzacola Vasing.; assay: Test Example 2: herbicidal activity, application during weed generation in submerged conditions (symbol A); details: Table 23; application herbicide amount 320 g/ha; grade 0-5 by criteria of Test Example 1
Summary of the method: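 Each pot contained alluvial soil under 4 cm of water with seeds of all three weeds sown together. Following growth at 25° C. to 30° C. to the one- to two-leaf stage, the floodwater received diluted emulsion at a predetermined amount; visual assessment followed at 3 weeks.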

[17] = tested on: Chenopodium album; assay: Test Example 4: herbicidal effect by soil treatment (symbol O); details: application herbicide amount 320 g/ha
Summary of the method: as §2

| SMILES | effect on crop b (directly sowed rice plant), grade 0-5 [7] | O: Chenopodium album, herbicidal effect (criteria of Test Example 1) [8] | P: Stellaria media, herbicidal effect (criteria of Test Example 1) [9] | c: corn, effect on crop (criteria of Test Example 1) [11] | I: Avena fatua, herbicidal effect (criteria of Test Example 1) [12] | herbicidal effect on E, grade 0-5 [13] | herbicidal effect on D (Leptochloa chinensis), grade 0-5 [14] | Herbicidal effect grade, A: Echinochloa oryzacola Vasing. [16] | Effect on crop grade, e: wheat [1] | Herbicidal effect grade, M: Abutilon theophrasti [2] | Herbicidal effect grade, J: Alopecurus myosuroides [3] | Herbicidal effect grade, K: Lolium multiflorum Lam. [4] | Effect on crop grade, b: directly sowed rice plant [5] | Herbicidal effect grade, G: Setaria viridis [6] | Herbicidal effect grade, I: Avena fatua [10] | Herbicidal effect grade, N: Amaranthus retroflexus [15] | Herbicidal effect grade, O: Chenopodium album [17] | also measured |
| --- | --- | --- | --- | --- | --- | --- | --- | --- | --- | --- | --- | --- | --- | --- | --- | --- | --- | --- |
| CON=C(C)CC1CC(OC(=O)N2CCOCC2)=C(c2c(C)cc(-c3ccc(Cl)cc3)cc2OC)C1=O (centres unmarked) [6-078, 2-(4′-chloro-3-methoxy-5-methyl-[1,1′-biphenyl]-4-yl)-4-{2-(methoxyimino)propyl}-3-oxocyclopent-1-ene-1-yl morpholine-4-carboxylate] | 5 (Herbicidal ratio of 90% or more (almost completely withered)) | 1 (Herbicidal ratio of 5% or higher and lower than 20%) | 3 (Herbicidal ratio of 40% or higher and lower than 70%) | 5 (Herbicidal ratio of 90% or more (almost completely withered)) | 5 (Herbicidal ratio of 90% or more (almost completely withered)) | 0 (Herbicidal ratio of 5% or lower (almost no effect)) | 5 (Herbicidal ratio of 90% or more (almost completely withered)) | 4 (Herbicidal ratio of 70% or higher and lower than 90%) | – | – | – | – | – | – | – | – | – | e: wheat, effect on crop grade [1]: 0 (Herbicidal ratio of 5% or lower (almost no effect)); M: Abutilon theophrasti, herbicidal effect grade [2]: 1 (Herbicidal ratio of 5% or higher and lower than 20%); J: Alopecurus myosuroides, herbicidal effect grade [3]: 0 (Herbicidal ratio of 5% or lower (almost no effect)); K: Lolium multiflorum Lam., herbicidal effect grade [4]: 0 (Herbicidal ratio of 5% or lower (almost no effect)); b: directly sowed rice plant, effect on crop grade [5]: 1 (Herbicidal ratio of 5% or higher and lower than 20%); G: Setaria viridis, herbicidal effect grade [6]: 5 (Herbicidal ratio of 90% or more (almost completely withered)); I: Avena fatua, herbicidal effect grade [10]: 3 (Herbicidal ratio of 40% or higher and lower than 70%); N: Amaranthus retroflexus, herbicidal effect grade [15]: 0 (Herbicidal ratio of 5% or lower (almost no effect)); O: Chenopodium album, herbicidal effect grade [17]: 0 (Herbicidal ratio of 5% or lower (almost no effect)) |
| COc1ccc(-c2cc(C)c(C3=C(O)CC(CC(C)=O)C3=O)c(C)c2)cc1 (centres unmarked) [7-006] | 5 (Herbicidal ratio of 90% or more (almost completely withered)) | 3 (Herbicidal ratio of 40% or higher and lower than 70%) | 0 (Herbicidal ratio of 5% or lower (almost no effect)) | 4 (Herbicidal ratio of 70% or higher and lower than 90%) | 3 (Herbicidal ratio of 40% or higher and lower than 70%) | 0 (Herbicidal ratio of 5% or lower (almost no effect)) | 5 (Herbicidal ratio of 90% or more (almost completely withered)) | 2 (Herbicidal ratio of 20% or higher and lower than 40%) | 0 (Herbicidal ratio of 5% or lower (almost no effect)) | 0 (Herbicidal ratio of 5% or lower (almost no effect)) | 0 (Herbicidal ratio of 5% or lower (almost no effect)) | 2 (Herbicidal ratio of 20% or higher and lower than 40%) | 3 (Herbicidal ratio of 40% or higher and lower than 70%) | 0 (Herbicidal ratio of 5% or lower (almost no effect)) | 0 (Herbicidal ratio of 5% or lower (almost no effect)) | 0 (Herbicidal ratio of 5% or lower (almost no effect)) | 0 (Herbicidal ratio of 5% or lower (almost no effect)) | – |
| CON=C(C)CC1CC(OC(=O)C(C)CSC)=C(c2c(C)cc(-c3ccc(Cl)cc3)cc2C)C1=O (centres unmarked) [6-086] | 5 (Herbicidal ratio of 90% or more (almost completely withered)) | 5 (Herbicidal ratio of 90% or more (almost completely withered)) | 4 (Herbicidal ratio of 70% or higher and lower than 90%) | 3 (Herbicidal ratio of 40% or higher and lower than 70%) | 5 (Herbicidal ratio of 90% or more (almost completely withered)) | 5 (Herbicidal ratio of 90% or more (almost completely withered)) | 5 (Herbicidal ratio of 90% or more (almost completely withered)) | 4 (Herbicidal ratio of 70% or higher and lower than 90%) | 2 (Herbicidal ratio of 20% or higher and lower than 40%) | 0 (Herbicidal ratio of 5% or lower (almost no effect)) | 5 (Herbicidal ratio of 90% or more (almost completely withered)) | 5 (Herbicidal ratio of 90% or more (almost completely withered)) | 1 (Herbicidal ratio of 5% or higher and lower than 20%) | 5 (Herbicidal ratio of 90% or more (almost completely withered)) | 4 (Herbicidal ratio of 70% or higher and lower than 90%) | 3 (Herbicidal ratio of 40% or higher and lower than 70%) | 3 (Herbicidal ratio of 40% or higher and lower than 70%) | – |
| CC(=O)CC1CC(O)=C(c2c(C)cc(-c3ccc(Cl)cc3)cc2C)C1=O (centres unmarked) [7-008] | 5 (Herbicidal ratio of 90% or more (almost completely withered)) | 2 (Herbicidal ratio of 20% or higher and lower than 40%) | 1 (Herbicidal ratio of 5% or higher and lower than 20%) | 5 (Herbicidal ratio of 90% or more (almost completely withered)) | 5 (Herbicidal ratio of 90% or more (almost completely withered)) | 5 (Herbicidal ratio of 90% or more (almost completely withered)) | 5 (Herbicidal ratio of 90% or more (almost completely withered)) | 4 (Herbicidal ratio of 70% or higher and lower than 90%) | 1 (Herbicidal ratio of 5% or higher and lower than 20%) | 0 (Herbicidal ratio of 5% or lower (almost no effect)) | 5 (Herbicidal ratio of 90% or more (almost completely withered)) | 5 (Herbicidal ratio of 90% or more (almost completely withered)) | 5 (Herbicidal ratio of 90% or more (almost completely withered)) | 5 (Herbicidal ratio of 90% or more (almost completely withered)) | 3 (Herbicidal ratio of 40% or higher and lower than 70%) | 0 (Herbicidal ratio of 5% or lower (almost no effect)) | 0 (Herbicidal ratio of 5% or lower (almost no effect)) | – |
